Measurements from PubChem BioAssay (NCI).
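Five compound concentrations were applied to cells in 96-well plates for 48 hours; endpoints were derived by simple linear interpolation of the resulting dose-response curve. GI50 is the concentration that inhibits growth by half. The concentration for full growth arrest is given as TGI.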

Tests used:
Assay in all cases: NCI-60 cell line screen, 48 h; in the data active = GI50 below about 0.43 µM; inactive = the rest
UO-31 renal = tested on: UO-31 renal
786-0 renal = tested on: 786-0 renal
SK-MEL-5 melanoma = tested on: SK-MEL-5 melanoma
SF-539 CNS = tested on: SF-539 CNS
ACHN renal = tested on: ACHN renal
MDA-MB-435 = tested on: MDA-MB-435
HOP-92 NSCLC = tested on: HOP-92 NSCLC
SW-620 colon = tested on: SW-620 colon
SF-295 CNS = tested on: SF-295 CNS
NCI-H226 lung = tested on: NCI-H226 lung
BT-549 breast = tested on: BT-549 breast
T-47D breast = tested on: T-47D breast
CCRF-CEM leukemia = tested on: CCRF-CEM leukemia
RPMI-8226 leukemia = tested on: RPMI-8226 leukemia
SK-MEL-2 melanoma = tested on: SK-MEL-2 melanoma
HS 578T breast = tested on: HS 578T breast
A498 renal = tested on: A498 renal
A549 NSCLC = tested on: A549 NSCLC
NCI-H460 lung = tested on: NCI-H460 lung
K-562 leukemia = tested on: K-562 leukemia
SN12C renal = tested on: SN12C renal
HL-60(TB) leukemia = tested on: HL-60(TB) leukemia
M14 melanoma = tested on: M14 melanoma
TK-10 renal = tested on: TK-10 renal
U251 CNS = tested on: U251 CNS
OVCAR-8 ovarian = tested on: OVCAR-8 ovarian
LOX IMVI melanoma = tested on: LOX IMVI melanoma
HCT-116 colon = tested on: HCT-116 colon
CAKI-1 renal = tested on: CAKI-1 renal
KM12 colon = tested on: KM12 colon
SK-MEL-28 melanoma = tested on: SK-MEL-28 melanoma
PC-3 prostate = tested on: PC-3 prostate
HOP-62 NSCLC = tested on: HOP-62 NSCLC
HCT-15 colon = tested on: HCT-15 colon
MDA-MB-231 breast = tested on: MDA-MB-231 breast
SK-OV-3 ovarian = tested on: SK-OV-3 ovarian
OVCAR-3 ovarian = tested on: OVCAR-3 ovarian
DU-145 prostate = tested on: DU-145 prostate
HT29 colon = tested on: HT29 colon
IGROV1 ovarian = tested on: IGROV1 ovarian
NCI-H522 lung = tested on: NCI-H522 lung
EKVX NSCLC = tested on: EKVX NSCLC
HCC-2998 colon = tested on: HCC-2998 colon
RXF 393 renal = tested on: RXF 393 renal
NCI/ADR-RES ovarian = tested on: NCI/ADR-RES ovarian
NCI-H23 lung = tested on: NCI-H23 lung
UACC-257 melanoma = tested on: UACC-257 melanoma
SF-268 CNS = tested on: SF-268 CNS
OVCAR-5 ovarian = tested on: OVCAR-5 ovarian
SNB-19 CNS = tested on: SNB-19 CNS
MALME-3M melanoma = tested on: MALME-3M melanoma
UACC-62 melanoma = tested on: UACC-62 melanoma
MCF7 breast = tested on: MCF7 breast
COLO 205 colon = tested on: COLO 205 colon
MOLT-4 leukemia = tested on: MOLT-4 leukemia
SNB-75 CNS = tested on: SNB-75 CNS
OVCAR-4 ovarian = tested on: OVCAR-4 ovarian

CCOC(=O)c1cc2c(c3ccsc13)C1(C)CCC3c4ccc(OC)cc4CCC3C1C2 (centres undefined)
inactive: GI50 (UO-31 renal) > 100 µM | GI50 (786-0 renal) > 100 µM | GI50 (SK-MEL-5 melanoma) > 100 µM | GI50 (SF-539 CNS) > 100 µM | GI50 (ACHN renal) > 100 µM | GI50 (MDA-MB-435) > 100 µM | GI50 (HOP-92 NSCLC) > 100 µM | GI50 (SW-620 colon) > 100 µM | GI50 (SF-295 CNS) > 100 µM | GI50 (NCI-H226 lung) > 100 µM | GI50 (BT-549 breast) > 100 µM | GI50 (T-47D breast) > 100 µM | GI50 (CCRF-CEM leukemia) > 100 µM | GI50 (RPMI-8226 leukemia) > 100 µM | GI50 (SK-MEL-2 melanoma) > 100 µM | GI50 (HS 578T breast) > 100 µM | GI50 (A498 renal) > 100 µM | GI50 (A549 NSCLC) > 100 µM | GI50 (NCI-H460 lung) > 100 µM | GI50 (K-562 leukemia) > 100 µM | GI50 (SN12C renal) > 100 µM | GI50 (HL-60(TB) leukemia) > 100 µM | GI50 (M14 melanoma) > 100 µM | GI50 (TK-10 renal) > 100 µM | GI50 (U251 CNS) > 100 µM | GI50 (OVCAR-8 ovarian) > 100 µM | GI50 (LOX IMVI melanoma) > 100 µM | GI50 (HCT-116 colon) > 100 µM | GI50 (CAKI-1 renal) > 100 µM | GI50 (KM12 colon) > 100 µM | GI50 (SK-MEL-28 melanoma) > 100 µM | GI50 (PC-3 prostate) > 100 µM | GI50 (HOP-62 NSCLC) > 100 µM | GI50 (HCT-15 colon) > 100 µM | GI50 (MDA-MB-231 breast) > 100 µM | GI50 (SK-OV-3 ovarian) 36 µM | GI50 (OVCAR-3 ovarian) > 100 µM | GI50 (DU-145 prostate) > 100 µM | GI50 (HT29 colon) 60.3 µM | GI50 (IGROV1 ovarian) > 100 µM | GI50 (NCI-H522 lung) > 100 µM | GI50 (EKVX NSCLC) > 100 µM | GI50 (HCC-2998 colon) > 100 µM | GI50 (RXF 393 renal) > 100 µM | GI50 (NCI/ADR-RES ovarian) > 100 µM | GI50 (NCI-H23 lung) > 100 µM | GI50 (UACC-257 melanoma) > 100 µM | GI50 (SF-268 CNS) > 100 µM | GI50 (OVCAR-5 ovarian) > 100 µM | GI50 (SNB-19 CNS) > 100 µM | GI50 (MALME-3M melanoma) > 100 µM | GI50 (UACC-62 melanoma) > 100 µM | GI50 (MCF7 breast) > 100 µM | GI50 (COLO 205 colon) > 100 µM
> 100 µM: TGI (UO-31 renal) | TGI (786-0 renal) | TGI (SK-MEL-5 melanoma) | TGI (SF-539 CNS) | TGI (ACHN renal) | TGI (MDA-MB-435) | TGI (HOP-92 NSCLC) | TGI (SW-620 colon) | TGI (SF-295 CNS) | TGI (NCI-H226 lung) | TGI (BT-549 breast) | TGI (T-47D breast) | TGI (CCRF-CEM leukemia) | TGI (RPMI-8226 leukemia) | TGI (SK-MEL-2 melanoma) | TGI (HS 578T breast) | TGI (A498 renal) | TGI (A549 NSCLC) | TGI (NCI-H460 lung) | TGI (K-562 leukemia) | TGI (SN12C renal) | TGI (HL-60(TB) leukemia) | TGI (M14 melanoma) | TGI (TK-10 renal) | TGI (U251 CNS) | TGI (OVCAR-8 ovarian) | TGI (LOX IMVI melanoma) | TGI (HCT-116 colon) | TGI (CAKI-1 renal) | TGI (KM12 colon) | TGI (SK-MEL-28 melanoma) | TGI (PC-3 prostate) | TGI (HOP-62 NSCLC) | TGI (HCT-15 colon) | TGI (MDA-MB-231 breast) | TGI (SK-OV-3 ovarian) | TGI (OVCAR-3 ovarian) | TGI (DU-145 prostate) | TGI (HT29 colon) | TGI (IGROV1 ovarian) | TGI (NCI-H522 lung) | TGI (EKVX NSCLC) | TGI (HCC-2998 colon) | TGI (RXF 393 renal) | TGI (NCI/ADR-RES ovarian) | TGI (NCI-H23 lung) | TGI (UACC-257 melanoma) | TGI (SF-268 CNS) | TGI (OVCAR-5 ovarian) | TGI (SNB-19 CNS) | TGI (MALME-3M melanoma) | TGI (UACC-62 melanoma) | TGI (MCF7 breast) | TGI (COLO 205 colon)

C[C@@H]1CCC[C@]2(C)O[C@H]2CC[C@@](C)(O)[C@@H]2CC3=C(CO)C(=O)O[C@H]3[C@H]1O2
> 50 µM: TGI (MOLT-4 leukemia) | TGI (UO-31 renal) | TGI (786-0 renal) | TGI (SK-MEL-5 melanoma) | TGI (SF-539 CNS) | TGI (ACHN renal) | TGI (MDA-MB-435) | TGI (HOP-92 NSCLC) | TGI (SW-620 colon) | TGI (SF-295 CNS) | TGI (NCI-H226 lung) | TGI (BT-549 breast) | TGI (T-47D breast) | TGI (CCRF-CEM leukemia) | TGI (RPMI-8226 leukemia) | TGI (SK-MEL-2 melanoma) | TGI (HS 578T breast) | TGI (A498 renal) | TGI (A549 NSCLC) | TGI (NCI-H460 lung) | TGI (K-562 leukemia) | TGI (SN12C renal) | TGI (M14 melanoma) | TGI (TK-10 renal) | TGI (U251 CNS) | TGI (OVCAR-8 ovarian) | TGI (LOX IMVI melanoma) | TGI (SNB-75 CNS) | TGI (HCT-116 colon) | TGI (CAKI-1 renal) | TGI (KM12 colon) | TGI (SK-MEL-28 melanoma) | TGI (PC-3 prostate) | TGI (HOP-62 NSCLC) | TGI (HCT-15 colon) | TGI (OVCAR-4 ovarian) | TGI (MDA-MB-231 breast) | TGI (SK-OV-3 ovarian) | TGI (OVCAR-3 ovarian) | TGI (DU-145 prostate) | TGI (HT29 colon) | TGI (IGROV1 ovarian) | TGI (NCI-H522 lung) | TGI (EKVX NSCLC) | TGI (HCC-2998 colon) | TGI (RXF 393 renal) | TGI (NCI/ADR-RES ovarian) | TGI (NCI-H23 lung) | TGI (UACC-257 melanoma) | TGI (SF-268 CNS) | TGI (OVCAR-5 ovarian) | TGI (SNB-19 CNS) | TGI (UACC-62 melanoma) | TGI (MCF7 breast) | TGI (COLO 205 colon)
> 5 µM: TGI (HL-60(TB) leukemia)

Cc1cccc(C)c1NC(=O)/C(Cc1nc2ccc([N+](=O)[O-])cc2[nH]c1=O)=N\NC(N)=O
> 100 µM: TGI (MOLT-4 leukemia) | TGI (UO-31 renal) | TGI (786-0 renal) | TGI (SK-MEL-5 melanoma) | TGI (SF-539 CNS) | TGI (ACHN renal) | TGI (MDA-MB-435) | TGI (HOP-92 NSCLC) | TGI (SW-620 colon) | TGI (SF-295 CNS) | TGI (NCI-H226 lung) | TGI (BT-549 breast) | TGI (T-47D breast) | TGI (CCRF-CEM leukemia) | TGI (RPMI-8226 leukemia) | TGI (SK-MEL-2 melanoma) | TGI (HS 578T breast) | TGI (A498 renal) | TGI (A549 NSCLC) | TGI (NCI-H460 lung) | TGI (K-562 leukemia) | TGI (SN12C renal) | TGI (HL-60(TB) leukemia) | TGI (M14 melanoma) | TGI (TK-10 renal) | TGI (U251 CNS) | TGI (OVCAR-8 ovarian) | TGI (LOX IMVI melanoma) | TGI (SNB-75 CNS) | TGI (HCT-116 colon) | TGI (CAKI-1 renal) | TGI (KM12 colon) | TGI (SK-MEL-28 melanoma) | TGI (PC-3 prostate) | TGI (HCT-15 colon) | TGI (OVCAR-4 ovarian) | TGI (MDA-MB-231 breast) | TGI (SK-OV-3 ovarian) | TGI (OVCAR-3 ovarian) | TGI (DU-145 prostate) | TGI (HT29 colon) | TGI (IGROV1 ovarian) | TGI (NCI-H522 lung) | TGI (EKVX NSCLC) | TGI (HCC-2998 colon) | TGI (NCI/ADR-RES ovarian) | TGI (NCI-H23 lung) | TGI (UACC-257 melanoma) | TGI (SF-268 CNS) | TGI (OVCAR-5 ovarian) | TGI (SNB-19 CNS) | TGI (MALME-3M melanoma) | TGI (UACC-62 melanoma) | TGI (MCF7 breast) | TGI (COLO 205 colon)
